Key:
[1] = molecular target: Calcium-activated potassium channel subunit alpha-1 KCNMA1 (Mus musculus) (UniProt Q08460); assay: Compound was tested for its effect on maxi-K-mediated outward current in Xenopus laevis oocytes expressing the cloned maxi-K channel mslo at a concentration of 10 uM; conditions: oocyte
Rattus norvegicus [2] = species: Rattus norvegicus; assay: Compound was tested for percentage inhibition of isometric force in response to a test compound in isolated rat bladder strips pre-contracted with carbachol at a concentration of 3 uM; format: functional
[3] = molecular target: Calcium-activated potassium channel subunit alpha-1 KCNMA1 (Mus musculus) (UniProt Q08460); assay: Compound was tested for its effect on maxi-K-mediated outward current in Xenopus laevis oocytes expressing the cloned maxi-K channel mslo at a concentration of 20 uM; conditions: oocyte
Rattus norvegicus [4] = species: Rattus norvegicus; assay: Compound was tested for percentage inhibition of isometric force in response to a test compound in isolated rat bladder strips pre-contracted with carbachol at a concentration of 20 uM; format: functional
[5] = molecular target: Calcium-activated potassium channel subunit alpha-1 KCNMA1 (Homo sapiens) (UniProt Q12791); assay: Compound was tested for its effect on maxi-K-mediated outward current in Xenopus laevis oocytes expressing the cloned maxi-K channel hslo at a concentration of 1 uM; conditions: oocyte
Calcium-activated potassium channel subunit alpha-1 KCNMA1 (Homo sapiens), sequence (Q12791 whole entry, looked up): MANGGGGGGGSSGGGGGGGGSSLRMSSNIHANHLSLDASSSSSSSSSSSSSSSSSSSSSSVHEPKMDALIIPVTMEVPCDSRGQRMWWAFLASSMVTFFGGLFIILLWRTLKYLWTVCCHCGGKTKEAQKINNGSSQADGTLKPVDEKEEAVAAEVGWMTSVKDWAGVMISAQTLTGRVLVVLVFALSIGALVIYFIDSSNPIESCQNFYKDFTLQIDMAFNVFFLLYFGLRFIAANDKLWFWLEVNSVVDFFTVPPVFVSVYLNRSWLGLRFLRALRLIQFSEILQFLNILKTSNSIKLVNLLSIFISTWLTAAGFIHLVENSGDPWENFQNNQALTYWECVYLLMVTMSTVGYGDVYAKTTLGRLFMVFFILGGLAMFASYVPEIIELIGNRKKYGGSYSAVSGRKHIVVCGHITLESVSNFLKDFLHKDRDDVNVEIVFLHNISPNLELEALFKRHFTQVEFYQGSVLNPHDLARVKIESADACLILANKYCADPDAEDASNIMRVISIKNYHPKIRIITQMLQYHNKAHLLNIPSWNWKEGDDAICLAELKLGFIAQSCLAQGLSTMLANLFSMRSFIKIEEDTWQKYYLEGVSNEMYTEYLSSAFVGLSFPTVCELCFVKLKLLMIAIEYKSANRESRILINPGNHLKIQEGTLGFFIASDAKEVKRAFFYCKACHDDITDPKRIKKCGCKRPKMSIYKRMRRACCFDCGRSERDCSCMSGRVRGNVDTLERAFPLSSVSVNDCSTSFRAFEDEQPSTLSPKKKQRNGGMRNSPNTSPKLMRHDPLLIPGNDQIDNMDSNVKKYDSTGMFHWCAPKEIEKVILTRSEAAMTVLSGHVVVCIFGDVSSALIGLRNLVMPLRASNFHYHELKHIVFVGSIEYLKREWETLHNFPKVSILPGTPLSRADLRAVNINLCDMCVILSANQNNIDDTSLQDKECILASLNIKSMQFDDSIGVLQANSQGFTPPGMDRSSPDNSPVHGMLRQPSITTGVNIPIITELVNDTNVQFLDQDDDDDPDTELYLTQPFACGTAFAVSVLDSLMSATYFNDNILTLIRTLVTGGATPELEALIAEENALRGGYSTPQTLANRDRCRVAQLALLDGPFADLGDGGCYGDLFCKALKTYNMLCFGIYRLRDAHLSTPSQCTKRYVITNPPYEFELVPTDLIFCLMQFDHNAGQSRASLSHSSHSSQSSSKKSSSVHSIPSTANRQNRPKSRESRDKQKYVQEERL

Calcium-activated potassium channel subunit alpha-1 KCNMA1 (Mus musculus), sequence (Q08460 whole entry, looked up): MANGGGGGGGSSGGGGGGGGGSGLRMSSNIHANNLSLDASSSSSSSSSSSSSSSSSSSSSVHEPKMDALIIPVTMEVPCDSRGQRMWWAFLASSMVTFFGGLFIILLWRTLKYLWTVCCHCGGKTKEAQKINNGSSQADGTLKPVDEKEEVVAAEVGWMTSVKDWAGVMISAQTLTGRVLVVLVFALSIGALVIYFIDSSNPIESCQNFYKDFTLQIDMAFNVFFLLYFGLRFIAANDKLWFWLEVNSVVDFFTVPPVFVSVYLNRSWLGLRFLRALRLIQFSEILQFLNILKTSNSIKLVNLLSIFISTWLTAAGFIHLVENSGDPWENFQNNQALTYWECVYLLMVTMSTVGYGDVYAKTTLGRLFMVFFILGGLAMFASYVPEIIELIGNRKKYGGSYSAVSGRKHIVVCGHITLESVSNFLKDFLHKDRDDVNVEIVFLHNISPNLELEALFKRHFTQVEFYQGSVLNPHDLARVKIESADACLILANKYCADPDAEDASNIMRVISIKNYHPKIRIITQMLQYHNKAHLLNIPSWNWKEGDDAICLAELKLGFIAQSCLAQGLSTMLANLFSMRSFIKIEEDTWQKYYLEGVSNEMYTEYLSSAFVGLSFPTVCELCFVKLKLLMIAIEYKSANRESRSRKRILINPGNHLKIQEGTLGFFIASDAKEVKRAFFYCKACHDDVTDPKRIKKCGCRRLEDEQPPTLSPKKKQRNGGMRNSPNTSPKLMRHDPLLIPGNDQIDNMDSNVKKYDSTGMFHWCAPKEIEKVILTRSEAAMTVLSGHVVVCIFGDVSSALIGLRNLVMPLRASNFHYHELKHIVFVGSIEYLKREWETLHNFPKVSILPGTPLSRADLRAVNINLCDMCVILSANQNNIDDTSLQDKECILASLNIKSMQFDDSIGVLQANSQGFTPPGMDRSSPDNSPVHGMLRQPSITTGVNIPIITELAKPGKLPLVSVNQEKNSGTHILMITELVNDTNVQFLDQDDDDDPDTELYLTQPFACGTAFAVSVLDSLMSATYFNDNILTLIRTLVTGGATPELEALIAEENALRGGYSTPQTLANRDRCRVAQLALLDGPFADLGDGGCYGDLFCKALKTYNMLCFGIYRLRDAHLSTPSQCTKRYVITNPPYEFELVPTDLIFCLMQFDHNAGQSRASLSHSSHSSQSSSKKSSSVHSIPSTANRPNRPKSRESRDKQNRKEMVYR

Row | SMILES | Increase [1] [%] | inhibition at 3 µM (Rattus norvegicus [2]) [%] | Increase [3] [%] | inhibition at 20 µM (Rattus norvegicus [4]) [%] | Increase [5] [%]
1 | Oc1ccc(Cl)cc1-n1nc(-c2cccc(C(F)(F)F)c2)nc1O | 161.5 | 42 |  |  | 
2 | Oc1ccc(Cl)cc1-n1nc(-c2cc(C(F)(F)F)cc(C(F)(F)F)c2)nc1O |  | 15 | 154.2 |  | 
3 | Oc1ccc(Cl)cc1-n1nc(-c2ccc(C(F)(F)F)c(Cl)c2)nc1O |  | 5 | 198.5 |  | 
4 | Oc1ccc(Cl)cc1-n1nc(-c2ccccc2)nc1O |  | 35 |  | 89.4 | 91.4
5 | Oc1ccc(Cl)cc1-n1nc(-c2ccc(C(F)(F)F)cc2C(F)(F)F)nc1O |  | 46 | 175.5 | 94 | 
6 | O=c1[nH]c(-c2ccc(C(F)(F)F)cc2)nn1-c1cc(Cl)ccc1O |  | 22 | 196.8 | 87 | 
7 | Oc1ccc(Cl)cc1-n1nc(-c2ccccc2C(F)(F)F)nc1O |  | 34 | 117.1 | 90 | 
8 | O=c1[nH]c2cc(C(F)(F)F)ccc2n1-c1cc(Cl)ccc1O |  |  | 131.8 | 8 | 

— ChEMBL document CHEMBL1136065, “The synthesis and structure-activity relationships of 1,3-diaryl 1,2,4-(4H)-triazol-5-ones: a new class of calcium-dependent, large conductance, potassium (maxi-K) channel opener targeted for urge urinary incontinence” (Bioorg Med Chem Lett, 2002)
